Measurements as given in the supplement of paper PMC10307832.

How the values were obtained:
Test in all cases: relative viability (nuclei count vs DMSO), 5 days (fraction); higher = more cells survive
4EGI-1 + Vorinostat = compound: O=C(O)C(Cc1ccccc1[N+](=O)[O-])=NNc1nc(-c2ccc(Cl)c(Cl)c2)cs1 (mixture of isomers) [4EGI-1] + O=C(CCCCCCC(=O)Nc1ccccc1)NO [Vorinostat] (partner 1 µM)
In short: (§1)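 Values are medians from duplicate plates. Each reflects relative viability, defined as the nuclei count of treated wells over that of vehicle wells. Lung cancer cell lines in 1536-well plates were pin-tool dosed one day after seeding with one drug alone or with a fixed anchor-drug dose plus five library-drug doses (not always all listed) in √10 steps, then fixed, stained and imaged at 4× after 5 days.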

XMD8-85 + Crizotinib = compound: CN1CCN(CC1)C2=CC(=C(C=C2)NC3=NC=C4C(=N3)N(C5=CC=CC=C5C(=O)N4C)C)OC [XMD8-85] + C[C@@H](Oc1cc(-c2cnn(C3CCNCC3)c2)cnc1N)c1c(Cl)ccc(F)c1Cl [Crizotinib] (partner 1 µM)
In short: as §1

4EGI-1 + Bortezomib = compound: O=C(O)C(Cc1ccccc1[N+](=O)[O-])=NNc1nc(-c2ccc(Cl)c(Cl)c2)cs1 (mixture of isomers) [4EGI-1] + CC(C)C[C@H](NC(=O)[C@H](Cc1ccccc1)NC(=O)c1cnccn1)B(O)O [Bortezomib] (partner 0.002 µM)
In short: as §1

XMD8-85 + Palbociclib = compound: CN1CCN(CC1)C2=CC(=C(C=C2)NC3=NC=C4C(=N3)N(C5=CC=CC=C5C(=O)N4C)C)OC [XMD8-85] + CC(=O)c1c(C)c2cnc(Nc3ccc(N4CCNCC4)cn3)nc2n(C2CCCC2)c1=O [Palbociclib] (partner 0.5 µM)
In short: as §1

Cell Line	relative viability (4EGI-1 + Vorinostat; first compound 0.5 µM)	relative viability (4EGI-1 + Vorinostat; first compound 1.581 µM)	relative viability (4EGI-1 + Vorinostat; first compound 5 µM)	relative viability (4EGI-1 + Vorinostat; first compound 15.81 µM)	relative viability (4EGI-1 + Vorinostat; first compound 50 µM)	relative viability (XMD8-85 + Crizotinib; first compound 0.08 µM)	relative viability (XMD8-85 + Crizotinib; first compound 0.253 µM)	relative viability (XMD8-85 + Crizotinib; first compound 0.8 µM)	relative viability (XMD8-85 + Crizotinib; first compound 2.53 µM)	relative viability (XMD8-85 + Crizotinib; first compound 8 µM)	relative viability (4EGI-1 + Bortezomib; first compound 0.5 µM)	relative viability (4EGI-1 + Bortezomib; first compound 1.581 µM)	relative viability (4EGI-1 + Bortezomib; first compound 5 µM)	relative viability (4EGI-1 + Bortezomib; first compound 15.81 µM)	relative viability (4EGI-1 + Bortezomib; first compound 50 µM)	relative viability (XMD8-85 + Palbociclib; first compound 0.08 µM)	relative viability (XMD8-85 + Palbociclib; first compound 0.253 µM)	relative viability (XMD8-85 + Palbociclib; first compound 0.8 µM)	relative viability (XMD8-85 + Palbociclib; first compound 2.53 µM)	relative viability (XMD8-85 + Palbociclib; first compound 8 µM)
NCI-H2126	0.756	0.773	0.819	0.539	0.646	1.02	0.974	1.02	1.06	1	1.13	1.04	1.07	1	1.11	0.415	0.394	0.378	0.32	0.387
NCI-H596	0.648	0.495	0.6	0.475	0.375	0.991	0.906	0.875	0.789	0.781	1	0.932	1.05	0.986	0.789	–	–	–	–	–
NCI-H2009	0.798	0.701	0.822	0.736	0.375	1.03	0.981	1.1	1.06	0.395	1.2	0.954	1.19	0.944	0.186	0.198	0.208	0.184	0.163	0.154
NCI-H2228	0.749	0.609	0.588	0.539	0.123	0.454	0.442	0.521	0.528	0.26	1.25	0.952	1.05	0.599	0.252	0.651	0.572	0.828	0.844	0.35
NCI-H2085	0.922	0.815	0.823	0.598	0.295	0.76	0.738	0.795	0.859	0.559	1.14	1.04	1.16	0.964	0.517	0.446	0.452	0.419	0.475	0.397
SW 900	0.615	0.59	0.503	0.314	0.15	–	–	–	–	–	–	–	–	–	–	0.553	0.535	0.594	0.496	0.324
H3255	0.792	–	0.77	–	0.735	0.808	0.853	0.822	0.902	0.52	0.843	0.663	0.796	0.576	0.48	0.33	0.323	0.285	0.273	0.26
UMC-11	0.448	0.408	0.449	0.446	0.296	0.656	0.497	0.638	0.459	0.237	1.04	0.872	0.669	0.679	0.255	0.359	0.336	0.347	0.308	0.318
NCI-H727	1.13	0.94	1.22	1.04	0.714	0.78	0.777	0.755	0.595	0.358	0.985	0.874	0.652	0.722	0.442	–	0.689	0.6	0.6	–
NCI-H1793	1.03	0.823	0.999	0.516	0.353	–	–	–	–	–	–	–	–	–	–	–	0.251	0.319	0.38	0.208
NCI-H1299	–	–	–	–	–	0.983	0.962	1.03	0.928	0.601	1.02	1.04	0.993	0.997	1.02	–	–	–	–	–
NCI-H1563	–	–	–	–	–	0.931	0.812	0.72	0.841	0.757	0.895	0.728	0.847	0.818	0.468	–	–	–	–	–
NCI-H1648	1.18	0.388	0.351	0.414	0.474	–	–	–	–	–	–	–	–	–	–	0.251	0.261	0.225	0.258	0.288
NCI-H1944	0.611	–	0.603	0.489	0.418	1.02	0.999	1.3	1.35	0.979	–	–	–	–	–	0.319	0.319	0.362	0.33	0.313
LK-2	0.314	0.174	0.337	0.354	0.236	0.232	0.244	0.201	0.226	0.262	–	–	–	–	–	0.554	0.778	0.592	0.491	0.668
NCI-H358	0.609	0.613	0.663	0.319	0.0967	0.674	0.465	0.816	0.506	0.248	–	–	–	–	–	0.244	0.126	0.138	0.155	0.132
Calu-6	–	–	–	–	–	0.689	0.607	0.894	–	0.396	0.982	0.877	1.15	0.989	0.33	–	–	–	–	–
IA-LM	1.04	0.91	0.871	0.698	0.261	0.678	0.889	0.91	–	0.127	0.873	0.707	0.552	0.144	0.0723	–	–	–	–	–
EBC-1	–	–	–	–	–	0.197	0.189	0.184	0.186	0.114	0.668	0.547	0.704	0.52	0.181	–	–	–	–	–
NCI-H1395	0.833	–	0.858	0.669	0.397	–	–	–	–	–	–	–	–	–	–	0.503	0.61	0.621	0.54	0.495
A549	–	–	–	–	–	0.704	0.711	0.872	0.855	0.426	–	–	–	–	–	–	–	–	–	–
NCI-H1703	–	–	–	–	–	–	0.586	0.649	0.47	0.315	0.403	0.363	0.446	0.365	0.201	–	–	–	–	–
NCI-H522	0.812	0.903	0.954	1.03	0.634	–	–	–	–	–	–	–	–	–	–	1.09	1.03	0.822	0.737	0.648
